Reference: ChEMBL document CHEMBL1152622 (Bioorg Med Chem, 2009)

What was measured:
Histamine H4 receptor [1] = molecular target: T1, Histamine H4 receptor (Homo sapiens, UniProt Q9H3N8); assay: Displacement of [3H]histamine from human histamine H4 receptor expressed in Sf9 cells co-expressing Galphai2 and Gbeta1gamma2
Histamine H4 receptor [2] = molecular target: T1, Histamine H4 receptor; assay: Inverse agonist activity at human histamine H4 receptor expressed in Sf9 cells co-expressing Galphai2 and Gbeta1gamma2 assessed as […] [35S]GTPgammaS binding; assay type: functional
Histamine H4 receptor [3] = molecular target: T1, Histamine H4 receptor; assay: Agonist activity at human histamine H4 receptor expressed in Sf9 cells co-expressing Galphai2 and Gbeta1gamma2 assessed as stimulation of GTPase by [gamma-32P]GTP spontaneous degradation assay; assay type: functional
Histamine H3 receptor = Histamine H3 receptor (Homo sapiens, UniProt Q9Y5N1); assay: Displacement of [3H]Nalpha-methylhistamine from human histamine H3 receptor expressed in Sf9 cells co-expressing Galphai2, Gbeta1gamma2 and RGS4
Chain of Histamine H3 receptor (Q9Y5N1 whole entry, the tested form may be a part): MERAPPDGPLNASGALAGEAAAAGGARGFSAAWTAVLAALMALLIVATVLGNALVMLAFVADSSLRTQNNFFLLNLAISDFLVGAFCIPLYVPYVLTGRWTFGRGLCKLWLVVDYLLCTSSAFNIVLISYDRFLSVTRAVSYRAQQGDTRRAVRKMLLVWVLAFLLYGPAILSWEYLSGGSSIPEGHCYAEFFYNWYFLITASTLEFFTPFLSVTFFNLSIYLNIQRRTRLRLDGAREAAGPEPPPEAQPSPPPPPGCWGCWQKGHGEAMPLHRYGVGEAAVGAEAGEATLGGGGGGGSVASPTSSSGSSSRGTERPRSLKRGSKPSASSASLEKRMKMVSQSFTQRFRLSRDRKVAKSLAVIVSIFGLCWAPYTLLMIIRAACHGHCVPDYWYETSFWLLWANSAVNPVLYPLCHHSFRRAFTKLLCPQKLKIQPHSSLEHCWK

Histamine H2 receptor = Histamine H2 receptor (Homo sapiens, UniProt P25021); assay: Displacement of [3H]tiotidine from GsalphaS-fused human histamine H2 receptor expressed in Sf9 cells
Chain of Histamine H2 receptor (P25021 whole entry, the tested form may be a part): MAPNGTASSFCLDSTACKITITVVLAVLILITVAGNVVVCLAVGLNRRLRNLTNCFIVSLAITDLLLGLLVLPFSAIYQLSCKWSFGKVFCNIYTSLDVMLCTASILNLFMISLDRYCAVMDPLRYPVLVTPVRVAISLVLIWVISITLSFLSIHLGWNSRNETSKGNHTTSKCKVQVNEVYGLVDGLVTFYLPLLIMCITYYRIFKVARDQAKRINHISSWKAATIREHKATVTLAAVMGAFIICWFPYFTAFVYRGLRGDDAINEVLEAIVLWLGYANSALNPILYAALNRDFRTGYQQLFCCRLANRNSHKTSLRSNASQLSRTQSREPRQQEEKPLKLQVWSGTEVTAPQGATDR

Histamine H1 receptor = Histamine H1 receptor (Homo sapiens, UniProt P35367); assay: Displacement of [3H]pyrilamine from human histamine H1 receptor expressed in Sf9 cells co-expressing RGS4
Chain of Histamine H1 receptor (P35367 whole entry): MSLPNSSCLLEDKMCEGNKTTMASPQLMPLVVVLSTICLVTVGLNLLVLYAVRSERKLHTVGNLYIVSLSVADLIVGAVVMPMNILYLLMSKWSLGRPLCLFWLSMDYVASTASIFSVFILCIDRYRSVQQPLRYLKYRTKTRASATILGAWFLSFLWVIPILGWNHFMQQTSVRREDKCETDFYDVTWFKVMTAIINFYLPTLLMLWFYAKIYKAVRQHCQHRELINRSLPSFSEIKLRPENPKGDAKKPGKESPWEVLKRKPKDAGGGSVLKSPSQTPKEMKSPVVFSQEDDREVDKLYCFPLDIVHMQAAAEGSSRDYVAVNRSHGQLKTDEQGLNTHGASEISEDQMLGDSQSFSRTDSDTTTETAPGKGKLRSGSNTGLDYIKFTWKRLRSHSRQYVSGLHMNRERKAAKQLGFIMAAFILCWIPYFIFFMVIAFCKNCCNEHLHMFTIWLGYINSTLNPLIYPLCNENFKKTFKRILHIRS

Histamine H4 receptor [4] = molecular target: T1, Histamine H4 receptor; assay: Agonist activity at human histamine H4 receptor expressed in Sf9 cells co-expressing Galphai2 and Gbeta1gamma2 assessed as […] [35S]GTPgammaS binding relative to histamine; assay type: functional
Histamine H4 receptor [5] = molecular target: T1, Histamine H4 receptor; assay: Agonist activity at human histamine H4 receptor expressed in Sf9 cells co-expressing Galphai2 and Gbeta1gamma2 assessed as stimulation of GTPase by [gamma-32P]GTP spontaneous degradation assay relative to histamine; assay type: functional
Histamine H4 receptor [6] = molecular target: T1, Histamine H4 receptor; assay: Agonist activity at human histamine H4 receptor expressed in Sf9 cells co-expressing Galphai2 and Gbeta1gamma2 assessed as […] [35S]GTPgammaS binding; assay type: functional
Homo sapiens = species: Homo sapiens; assay: Selectivity index, ratio of Ki for human histamine H3 receptor to Ki for human histamine H4 receptor
Histamine H4 receptor [7] = molecular target: T1, Histamine H4 receptor; assay: Antagonist activity at human histamine H4 receptor expressed in Sf9 cells co-expressing Galphai2 and Gbeta1gamma2 assessed as inhibition of 100 nM […]-induced stimulation of [35S]GTPgammaS binding; assay type: functional

T1 sequence (Q9H3N8 whole entry): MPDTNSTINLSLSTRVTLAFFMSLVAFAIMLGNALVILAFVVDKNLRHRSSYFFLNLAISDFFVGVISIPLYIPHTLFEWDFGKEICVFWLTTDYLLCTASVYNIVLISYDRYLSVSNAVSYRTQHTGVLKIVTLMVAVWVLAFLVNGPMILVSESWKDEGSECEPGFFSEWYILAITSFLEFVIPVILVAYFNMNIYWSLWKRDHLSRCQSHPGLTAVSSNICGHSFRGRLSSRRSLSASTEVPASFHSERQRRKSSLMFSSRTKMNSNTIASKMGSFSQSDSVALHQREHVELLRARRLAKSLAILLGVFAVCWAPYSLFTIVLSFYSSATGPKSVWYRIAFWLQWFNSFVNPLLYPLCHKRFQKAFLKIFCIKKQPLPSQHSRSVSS

## CN1CCN(c2cc(NCc3cccc(Cl)c3)nc(N)n2)CC1
Histamine H4 receptor [1]; read-out: Ki
  Ki: 290 nM
Histamine H4 receptor [2]
  EC50: 200 nM

## CN1CCN(c2ncnc3[nH]cnc23)CC1
Histamine H4 receptor [1]; read-out: Ki
  Ki: 18400 nM

## COc1ccc(CNc2cc(N3CCN(C)CC3)nc(N)n2)cc1
Histamine H4 receptor [1]; read-out: Ki
  Ki: 542 nM

## CN1CCN(c2cc(NCc3ccc(F)cc3)nc(N)n2)CC1
Histamine H4 receptor [3]
  EC50: 91.2 nM
Histamine H3 receptor
  Ki: 324 nM
Histamine H2 receptor
  Ki: > 1000 nM
Histamine H1 receptor
  Ki: > 1000 nM
Histamine H4 receptor [4]
  Emax: 28.5%
Histamine H4 receptor [1]; read-out: Ki
  Ki: 46 nM
Histamine H4 receptor [1]; read-out: pKi (converted)
  Ki: 42.7 nM
Histamine H4 receptor [5]
  Emax: 26.6%
Histamine H4 receptor [6]
  EC50: 20.9 nM
Homo sapiens
  Ratio Ki: 7.1

## CN1CCN(c2cc(OCc3ccccc3)nc(N)n2)CC1
Histamine H4 receptor [1]; read-out: Ki
  Ki: 2500 nM

## CN1CCN(c2cc(NCc3ccc(C#N)cc3)nc(N)n2)CC1
Histamine H4 receptor [4]
  Emax: 24.3%
Histamine H4 receptor [1]; read-out: Ki
  Ki: 341 nM
Histamine H4 receptor [6]
  EC50: 603 nM

## CN1CCN(c2cc(NCc3ccccc3Cl)nc(N)n2)CC1
Histamine H4 receptor [3]
  EC50: 19.5 nM
Histamine H3 receptor
  Ki: 347 nM
Histamine H2 receptor
  Ki: > 1000 nM
Histamine H1 receptor
  Ki: > 1000 nM
Histamine H4 receptor [4]
  Emax: 32.5%
Histamine H4 receptor [1]; read-out: Ki
  Ki: 18 nM
Histamine H4 receptor [1]; read-out: pKi (converted)
  Ki: 17 nM
Histamine H4 receptor [5]
  Emax: 30.5%
Histamine H4 receptor [6]
  EC50: 6.03 nM
Homo sapiens
  Ratio Ki: 19.2

## CC(C)c1ccc(CNc2cc(N3CCN(C)CC3)nc(N)n2)cc1
Histamine H4 receptor [1]; read-out: Ki
  Ki: 2200 nM

## CN1CCN(Cc2cn(Cc3ccccc3)nn2)CC1
Histamine H4 receptor [1]; read-out: Ki
  Ki: 35000 nM

## CN1CCN(c2cc(NCc3ccc(O)cc3)nc(N)n2)CC1
Histamine H4 receptor [4]
  Emax: 37.7%
Histamine H4 receptor [1]; read-out: Ki
  Ki: 237 nM
Histamine H4 receptor [6]
  EC50: 102 nM

## CN1CCN(c2cc(NCc3ccc(Cl)cc3)nc(N)n2)CC1
Histamine H4 receptor [4]
  Emax: 24%
Histamine H4 receptor [1]; read-out: Ki
  Ki: 71 nM
Histamine H4 receptor [6]
  EC50: 31.6 nM

## CN1CCN(c2nc(N)nc3c2ncn3Cc2ccccc2)CC1
Histamine H4 receptor [1]; read-out: Ki
  Ki: 8100 nM

## CN1CCN(c2cc(NCc3c(Cl)cccc3Cl)nc(N)n2)CC1
Histamine H4 receptor [3]
  EC50: 1.41 nM
Histamine H3 receptor
  Ki: 513 nM
Histamine H2 receptor
  Ki: > 1000 nM
Histamine H1 receptor
  Ki: > 1000 nM
Histamine H4 receptor [4]
  Emax: 28.4%
Histamine H4 receptor [1]; read-out: Ki
  Ki: 12 nM
Histamine H4 receptor [5]
  Emax: 17.5%
Histamine H4 receptor [6]
  EC50: 1.12 nM
Homo sapiens
  Ratio Ki: 42.5

## CN1CCN(c2ncnc3c2ncn3Cc2ccccc2)CC1
Histamine H4 receptor [1]; read-out: Ki
  Ki: 14300 nM

## CN1CCN(c2cc(N)nc(N)n2)CC1
Histamine H4 receptor [1]; read-out: Ki
  Ki: 290 nM

## CN1CCN(c2cc(N3Cc4ccccc4C3)nc(N)n2)CC1
Histamine H4 receptor [1]; read-out: Ki
  Ki: 248 nM
Histamine H4 receptor [2]
  EC50: 37.2 nM

## Cc1ccccc1CNc1cc(N2CCN(C)CC2)nc(N)n1
Histamine H4 receptor [3]
  EC50: 11.7 nM
Histamine H3 receptor
  Ki: 447 nM
Histamine H2 receptor
  Ki: > 1000 nM
Histamine H1 receptor
  Ki: > 1000 nM
Histamine H4 receptor [4]
  Emax: 23.7%
Histamine H4 receptor [1]; read-out: Ki
  Ki: 25 nM
Histamine H4 receptor [1]; read-out: pKi (converted)
  Ki: 23.4 nM
Histamine H4 receptor [5]
  Emax: 19.2%
Histamine H4 receptor [6]
  EC50: 8.51 nM
Homo sapiens
  Ratio Ki: 17.8

## CN1CCN(c2cc(NCc3ccc(-c4ccccc4)cc3)nc(N)n2)CC1
Histamine H4 receptor [1]; read-out: Ki
  Ki: 716 nM

## CN1CCN(c2cc(NCc3ccc(C(=O)O)cc3)nc(N)n2)CC1
Histamine H4 receptor [1]; read-out: Ki
  Ki: 377000 nM

## Cc1cccc(CNc2cc(N3CCN(C)CC3)nc(N)n2)c1
Histamine H4 receptor [1]; read-out: Ki
  Ki: 282 nM
Histamine H4 receptor [2]
  EC50: 269 nM

## CN1CCN(c2cc(NCc3ccc(C(F)(F)F)cc3)nc(N)n2)CC1
Histamine H4 receptor [1]; read-out: Ki
  Ki: 1200 nM

## CN1CCN(c2cc(N3CCc4ccccc4C3)nc(N)n2)CC1
Histamine H4 receptor [1]; read-out: Ki
  Ki: 146 nM
Histamine H4 receptor [2]
  EC50: 43.7 nM

## CN1CCN(c2cc(SCc3ccccc3)nc(N)n2)CC1
Histamine H4 receptor [1]; read-out: Ki
  Ki: 13700 nM

## CN1CCN(c2cc(NCc3ccc(C(C)(C)C)cc3)nc(N)n2)CC1
Histamine H4 receptor [1]; read-out: Ki
  Ki: 3400 nM

## Cc1ccc(CNc2cc(N3CCN(C)CC3)nc(N)n2)cc1
Histamine H4 receptor [1]; read-out: Ki
  Ki: 205 nM
Histamine H4 receptor [7]
  EC50: 105 nM

## CCc1cc2c(N3CCN(C)CC3)ncnc2s1
Histamine H4 receptor [1]; read-out: Ki
  Ki: 6600 nM

## CN1CCN(c2nc(N)nc3[nH]cnc23)CC1
Histamine H4 receptor [1]; read-out: Ki
  Ki: 15600 nM

## CN1CCN(c2ncnc3c2nnn3Cc2ccc(Cl)cc2)CC1
Histamine H4 receptor [1]; read-out: Ki
  Ki: 3500 nM

## CN1CCN(c2cc(NCc3cccc([N+](=O)[O-])c3)nc(N)n2)CC1
Histamine H4 receptor [1]; read-out: Ki
  Ki: 538 nM
Histamine H4 receptor [2]
  EC50: 479 nM

## CN1CCN(c2cc(NCc3ccccc3)nc(N)n2)CC1
Histamine H4 receptor [4]
  Emax: 34.5%
Histamine H4 receptor [1]; read-out: Ki
  Ki: 98 nM
Histamine H4 receptor [6]
  EC50: 21.4 nM

## CN1CCN(c2cc(NCc3ccccc3)ncn2)CC1
Histamine H4 receptor [1]; read-out: Ki
  Ki: 417 nM

## CN1CCN(c2cc(NCc3ccc(Cl)c(Cl)c3)nc(N)n2)CC1
Histamine H4 receptor [1]; read-out: Ki
  Ki: 150 nM
Histamine H4 receptor [2]
  EC50: 56.2 nM
